The structures appear in SMILES notation. The source made the active and inactive calls.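 The calls were made as follows: active = tumour findings in long-term animal cancer tests in more than one sex, species or organ; inactive = no tumour finding and more than one negative test.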 *1 amine or outer side, *2 acyl side, *3 side chain or, on linkers, in order; H or OH if unused. Where a SMILES comes first, the peptide text is derived from it. Bridges are numbered along the chain shown (N, C = ends). Roman numbers before positions name the chains, in order. [ ]: non-standard residue; d: D form. Actinocin(9to1) = Cc1c2oc3c(C)ccc(C(=O)[*:1])c3nc-2c(C(=O)[*:2])c(N)c1=O; NMeV = CN[C@H](C(=O)O)C(C)C; Sar = CNCC(=O)O

This data set can be described thus: DSSTox (CPDBAS) Carcinogenic Potency Database Summary MultiCellCall Results. The note with it: animal carcinogenicity bioassays, multi-cell call summary. The procedure, abridged: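 ActivityScore sums 50 for multispecies, 30 for multisex and 20 for multisite positivity. Based on the most positive experiment per sex-species across standardised chronic rodent and other animal cancer tests.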
Turning to `C=CCN(CC=C)N=O`, the outcome was “active; multisex active; multispecies active”. As for `C[N+](C)(C)CCCl`, the entry is “inactive; multisex inactive; multispecies inactive”.

Consider `COC(=O)C1=C(C)NC(C)=C(C(=O)OCCN2CCN(C(c3ccccc3)c3ccccc3)CC2)C1c1cccc([N+](=O)[O-])c1` (stereo not given), for which the outcome was “inactive; multisex inactive; multispecies inactive”. As for `O=P(=O)O`, the entry is “inactive; multisex inactive”; as for `CCC1(c2ccccc2)C(=O)N=C(O)NC1=O` (stereo not given), “active; multisex active; multispecies active”. The value for `CC(C)OC(=O)COc1ccc(Cl)cc1Cl` was “inactive; multisex inactive”. As for `O=C(Nc1nc(-c2ccc([N+](=O)[O-])o2)cs1)C(F)(F)F`, the entry is “active; multisite active; multispecies active”; as for `ClCc1ccccc1`, “active; multisex active”.

For the molecule `CN(C)C(=S)SC(=S)N(C)C`, the outcome was “inactive; multisex inactive”. As for `c1ccc2sc(SSc3nc4ccccc4s3)nc2c1`, the entry is “inactive; multisex inactive”. The value for `Cc1cc2ncccc2c2nc(N)n(C)c12` was “active; multisite active; multisex active”. As for `c1cc(OCC2CO2)cc(OCC2CO2)c1` (stereo not given), the entry is “active; multisex active; multispecies active”. As to `O=[N+]([O-])OCC(CO[N+](=O)[O-])O[N+](=O)[O-]`, the outcome is “active; multisite active; multisex active”. The value for `CC(=O)CN(CC(O)CO)N=O` (stereo not given) was “active; multisite active; multispecies active”. The value for `CCOP(=S)(OCC)Oc1ccc([N+](=O)[O-])cc1` was “inactive; multisex inactive; multispecies inactive”.

With `NNc1nc(-c2ccc([N+](=O)[O-])cc2)cs1`, the outcome was “active; multisite active; multispecies active”. With `CN1CCCC1=O`, the outcome is “active; multisex active”. As for `Cc1ccc2ccccc2c1`, the entry is “inactive; multisex inactive”; as for `O=C(NCC1CCCCN1)c1cc(OCC(F)(F)F)ccc1OCC(F)(F)F` (stereo not given), “inactive; multisex inactive; multispecies inactive”.

With `O=[N+]([O-])c1ccc(-c2cscn2)o1`, the outcome was “active; multisite active”. Turning to `OB(O)O`, the outcome was “inactive; multisex inactive”. The value for `ClCc1cccnc1` was “active; multisex active; multispecies active”.

On to `CC(I)C1OCC(CO)O1` (stereo not given), for which the outcome is “active; multisite active; multisex active; multispecies active”. As for `CN(C)CNc1nnc(/C=C/c2ccc([N+](=O)[O-])o2)o1`, the entry is “active; multisite active”; as for `CCOC(=O)C(O)(c1ccc(Cl)cc1)c1ccc(Cl)cc1`, “active; multisex active”; as for `CCCN(CCC)N=O`, “active; multisite active; multispecies active”. As for `O=[N+]([O-])c1ccc(-c2cnc3ccccn23)o1`, the outcome was “active; multisite active; multisex active; multispecies active”. For `O=C(O)CN(CCN(CC(=O)O)CC(=O)O)CC(=O)O`, the outcome was “inactive; multisex inactive; multispecies inactive”. As for `NC(=O)c1cnccn1`, the entry is “inactive; multisex inactive; multispecies inactive”. As to `Oc1c(Cl)cc(Cl)cc1Sc1cc(Cl)cc(Cl)c1O`, the outcome is “inactive; multisex inactive”. The value for `O=C(O)c1cc(Oc2ccc(C(F)(F)F)cc2Cl)ccc1[N+](=O)[O-]` was “active; multisite active; multisex active”; that for `COC1[C@@H](O[C@@H]2O[C@H](C)[C@@H](O[C@H]3C[C@@](C)(O)[C@H](OC(=O)CC(C)C)[C@H](C)O3)[C@H](N(C)C)[C@H]2O)[C@@H](CC=O)C[C@@H](C)[C@@H](O)/C=C/C=C/C[C@@H](C)OC(=O)C[C@H]1OC(C)=O` (stereo not given in full) was “inactive; multisex inactive”; that for `CC[C@H]1OC(=O)C[C@@H](O)[C@H](C)[C@@H](O[C@@H]2O[C@H](C)[C@@H](O[C@H]3C[C@@](C)(O)[C@@H](O)[C@H](C)O3)[C@H](N(C)C)[C@H]2O)[C@@H](CC=O)C[C@@H](C)C(=O)/C=C/C(C)=C/C1CO[C@@H]1O[C@H](C)[C@@H](O)[C@@H](OC)[C@H]1OC` (stereo not given in full) was “inactive; multisex inactive”.

For `CC(=O)CN(CCO)N=O`, the outcome was “active; multisite active; multispecies active”. Turning to `CN(N=O)C(=O)N[C@@H]1[C@@H](O)[C@H](O)[C@@H](CO)O[C@@H]1O`, the outcome is “active; multisite active; multisex active; multispecies active”. The value for `C=CCN(CC(C)=O)N=O` was “active; multisite active; multispecies active”; that for `COc1cc(-c2ccc(N=Nc3c(S(=O)(=O)O)cc4cc(S(=O)(=O)O)cc(N)c4c3O)c(OC)c2)ccc1N=Nc1c(S(=O)(=O)O)cc2cc(S(=O)(=O)O)cc(N)c2c1O` was “active; multisite active; multisex active”.

Turning to `ClC1=C(Cl)C(Cl)(Cl)C(Cl)=C1Cl`, the outcome is “inactive; multisex inactive; multispecies inactive”. The value for `CCCCCc1cc(O)c2c(c1)OC(C)(C)[C@@H]1CCC(C)=C[C@@H]21` was “inactive; multisex inactive; multispecies inactive”; that for `C=CBr` was “active; multisite active; multisex active”; that for `c1ccc(Nc2ccc(Nc3ccccc3)cc2)cc1` was “inactive; multisex inactive; multispecies inactive”. As for `O=CNNc1nc(-c2ccc([N+](=O)[O-])o2)cs1`, the entry is “active; multisite active; multisex active; multispecies active”. As for `O=C1CCCCCN1`, the entry is “inactive; multisex inactive; multispecies inactive”. Consider `C=CCN(CCO)N=O`, for which the outcome is “active; multisite active”. As for `Oc1ccc(-c2ccccc2)cc1`, the entry is “inactive; multisex inactive”. As for `CSCCC(N)C(=O)O` (stereo not given), the entry is “inactive; multispecies inactive”.

In the case of `CCN(CC)CCCNC(=O)Cn1ncc(-c2ccccc2)c1-c1ccccc1`, the outcome is “inactive; multisex inactive”.

Consider `CC1=NN(c2ccccc2)C(=O)C1`, for which the outcome is “inactive; multisex inactive; multispecies inactive”. The value for `C=C/C1=C/[C@H](C)[C@](C)(OC(C)=O)C(=O)OCC2=CC[N+]3(C)CC[C@@H](OC1=O)C23[O-]` (stereo not given in full) was “active; multisite active”; that for `CC1CC(C)(C)CC(OOC(C)(C)C)(OOC(C)(C)C)C1` (stereo not given) was “inactive; multisex inactive”; that for `Nc1ccc(-c2ccc(N)c(N)c2)cc1N` was “active; multisite active; multispecies active”.

`O.[Cd+2].[Cl-].[Cl-]`: the outcome is “inactive; multisex inactive”. The value for `Cc1c(-c2cnccn2)ssc1=S` was “inactive; multisex inactive”; that for `O=NN(CC(=O)O)CC(=O)O` was “inactive; multisex inactive”. As for `CC1(C)COC1=O`, the entry is “active; multisex active”. The value for `CC(O)CN(CCO)N=O` (stereo not given) was “active; multisite active”; that for `O=C1CCCO1` was “inactive; multisex inactive; multispecies inactive”; that for `O=C1C(Cl)=C(Cl)C(=O)C(Cl)=C1Cl` was “inactive; multisex inactive”. On to `O=C(Nc1ccc([N+](=O)[O-])cc1Cl)c1cc(Cl)ccc1O`, for which the outcome was “inactive; multisex inactive; multispecies inactive”. The value for `CC(=O)NNc1ccccc1` was “active; multisex active”.

For the molecule `O=C1NCCN1/N=C/c1ccc([N+](=O)[O-])o1`, the outcome was “active; multisite active”.

With `NC(=O)Cc1c([O-])on[n+]1Cc1ccccc1`, the outcome was “active; multisex active; multispecies active”. The value for `CNc1ncnc2c1ncn2[C@@H]1O[C@H](CO)[C@@H](O)[C@H]1O` was “inactive; multisex inactive”; that for `COc1cccc2c1C(=O)c1c(O)c3c(c(O)c1C2=O)C[C@@](O)(C(=O)CO)C[C@@H]3O[C@H]1C[C@H](N)[C@H](O)[C@H](C)O1` was “inactive; multispecies inactive”; that for `Cc1cc(Cc2cc(C)cc(C(C)(C)C)c2O)c(O)c(C(C)(C)C)c1` was “inactive; multisex inactive”.

As for `O=C1Nc2ccc(Cl)cc2C(c2ccccc2)=NC1O` (stereo not given), the outcome was “active; multisite active; multisex active”. As for `ClCCCl`, the entry is “active; multisite active; multisex active; multispecies active”; as for `NNC(=O)c1cccnc1`, “active; multisex active”. For the molecule `COC(C)(C)C`, the outcome was “active; multisite active; multisex active; multispecies active”. For the molecule `O=S(=O)(O)c1cc(S(=O)(=O)O)c2c(N=Nc3ccccc3)c(O)ccc2c1`, the outcome was “inactive; multisex inactive; multispecies inactive”. As for `Cc1cc(C)nc(NS(=O)(=O)c2ccc(N)cc2)n1`, the entry is “active; multisex active”.

As for `CNc1ccc(N(CCO)CCO)cc1[N+](=O)[O-]`, the outcome is “active; multisite active; multisex active; multispecies active”. With `NNc1ccccc1`, the outcome is “active; multisex active”. Take `Cc1c2oc3c(C)ccc(C(=O)N[C@@H]4C(=O)N[C@H](C(C)C)C(=O)N5CCC[C@H]5C(=O)N(C)CC(=O)N(C)[C@@H](C(C)C)C(=O)O[C@@H]4C)c3nc-2c(C(=O)N[C@@H]2C(=O)N[C@H](C(C)C)C(=O)N3CCC[C@H]3C(=O)N(C)CC(=O)N(C)[C@@H](C(C)C)C(=O)O[C@@H]2C)c(N)c1=O` (I: T[dV]P[Sar][NMeV] / II: T[dV]P[Sar][NMeV]; ester I:1-I:C, II:1-II:C; linker I:N-II:N via Actinocin(9to1)): the outcome is “active; multisex active”. In the case of `O=CCBr`, the outcome was “inactive; multisex inactive”. The value for `NNc1nc(-c2ccc([N+](=O)[O-])o2)cs1` was “active; multisite active; multispecies active”; that for `CCOC(=O)[C@H](CCc1ccccc1)N[C@@H](C)C(=O)N1Cc2ccccc2C[C@H]1C(=O)O` was “inactive; multisex inactive; multispecies inactive”. As for `ClC1=C(Cl)C2(Cl)C3C(Cl)C=CC3C1(Cl)C2(Cl)Cl` (stereo not given), the entry is “active; multisex active”; as for `[S-]c1nc2ccccc2s1.[S-]c1nc2ccccc2s1.[Zn+2]`, “inactive; multisex inactive”; as for `Nc1ncc([N+](=O)[O-])s1`, “active; multisite active”.

Source of the values: PubChem BioAssay AID1205 (EPA DSSTox, 2008).
